Reference: PubChem BioAssay (NCI)
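Method: 48-hour compound exposure of cells in 96-well plates, five concentrations, linear interpolation of endpoints. The concentration for 50% growth inhibition is given as GI50. Definition used: TGI = concentration required for complete inhibition of growth.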

Columns and labels:
Test in all cases: NCI anticancer screen, dose series, 48 h
SK-OV-3 ovarian = tested on: SK-OV-3 ovarian
OVCAR-3 ovarian = tested on: OVCAR-3 ovarian
HOP-62 NSCLC = tested on: HOP-62 NSCLC
UACC-257 melanoma = tested on: UACC-257 melanoma
NCI-H522 lung = tested on: NCI-H522 lung
OVCAR-5 ovarian = tested on: OVCAR-5 ovarian
RXF 393 renal = tested on: RXF 393 renal
SN12C renal = tested on: SN12C renal
SNB-19 CNS = tested on: SNB-19 CNS
NCI-H460 lung = tested on: NCI-H460 lung

| Structure (SMILES) | GI50 (SK-OV-3 ovarian) [µM] | TGI (SK-OV-3 ovarian) [µM] | GI50 (OVCAR-3 ovarian) [µM] | TGI (OVCAR-3 ovarian) [µM] | GI50 (HOP-62 NSCLC) [µM] | TGI (HOP-62 NSCLC) [µM] | GI50 (UACC-257 melanoma) [µM] | TGI (UACC-257 melanoma) [µM] | GI50 (NCI-H522 lung) [µM] | TGI (NCI-H522 lung) [µM] | GI50 (OVCAR-5 ovarian) [µM] | TGI (OVCAR-5 ovarian) [µM] | GI50 (RXF 393 renal) [µM] | TGI (RXF 393 renal) [µM] | GI50 (SN12C renal) [µM] | TGI (SN12C renal) [µM] | GI50 (SNB-19 CNS) [µM] | TGI (SNB-19 CNS) [µM] | GI50 (NCI-H460 lung) [µM] | TGI (NCI-H460 lung) [µM] |
| --- | --- | --- | --- | --- | --- | --- | --- | --- | --- | --- | --- | --- | --- | --- | --- | --- | --- | --- | --- | --- |
| Nc1ccccc1C#C/C=C\C#Cc1ccc(OCCCNC(=O)c2cc3ccccc3[nH]2)cc1 | 4.36 | 33.1 | 11.7 | 95.6 | 15.7 | 35.7 | 13 | 53.3 | > 100 | > 100 | 32.3 | > 100 | 7.15 | 22 | 7.32 | 39.8 | 20.6 | 56.8 | 9.83 | > 100 |
| CCCCCCCCCCCCCCCCCC1=NC(C)(C)CN1CC(C)O (stereo not given) | 18.8 | 37 | 5.35 | 19.5 | 5.69 | 26 | 22.4 | 40.6 | 4.5 | 23.8 | 15.5 | 31.7 | 14.2 | 31.9 | 10.5 | 24.4 | 7.08 | 31.5 | 2.78 | 7.06 |
